Laboratory results: US6737383B1, “Herbicidal oxadiazolidines” (priority 1999, dated 2004)

Experiments:
bermuda-grass = experiment: Test D bermudagrass; type: in vivo, Cynodon dactylon; conditions: Postemergence, 0 to 100 scale
common pursiane = experiment: Test D common purslane; type: in vivo, Portulaca oleracea; conditions: Postemergence, 0 to 100 scale
common groundsel = experiment: Test D common groundsel; type: in vivo, Senecio vulgaris; conditions: Postemergence, 0 to 100 scale
purple nutsedge = experiment: Test D purple nutsedge; type: in vivo, Cyperus rotundus; conditions: Postemergence, 0 to 100 scale; for Purple nutsedge plant response rating: 0 no injury, 100 complete control
tall mallow = experiment: Test D tall mallow; type: in vivo, Malva sylvestris; conditions: Postemergence, 0 to 100 scale; for Tall Mallow plant response rating: 0 no injury, 100 complete control
Green foxtail [1] = experiment: Test D green foxtail; type: in vivo; conditions: Postemergence, 0 to 100 scale
Green foxtail [2] = experiment: Test D green foxtail; type: in vivo; conditions: Postemergence, 0 to 100 scale, 0 no injury, 100 complete control
Green foxtail [3] = experiment: Test D green foxtail; type: in vivo; conditions: Postemergence, 0 to 100 scale; remark: listed apart in the source
Green foxtail [4] = experiment: Test D green foxtail; type: in vivo; conditions: Postemergence, 0 to 100 scale, 0 no injury, 100 complete control; remark: listed apart in the source
annual bluegrass = experiment: Test E annual bluegrass; type: in vivo, Poa annua; conditions: Postemergence
Experimental: (§1) Compounds evaluated in this test were formulated in a non-phytotoxic solvent mixture which included a surfactant and applied to plants that were in the 1- to 4-leaf stage (postemergence application). A mixture of sandy loam soil and greenhouse potting mix in a 60:40 ratio was used for the postemergence test.
(§2) Plantings of these crops and weed species were adjusted to produce plants of appropriate size for the postemergence test. All plant species were grown using normal greenhouse practices. Crop and weed species include annual bluegrass (Poa annua), blackgrass (Alopecurus myosuroides), black nightshade (Solanum nigra), chickweed (Stellaria media), common poppy (Papaver rhoeas), deadnettle (Lamium amplexicaule), downy brome (Bromus tectorum), field violet (Viola arvensis), galium (Galium aparine), green foxtail (Setaria viridis), Italian ryegrass (Lolium multiflorum), jointed goatgrass (Aegilops cylindrica), kochia (Kochia scoparia), lambsquarters (Chenopodium album), littleseed canarygrass (Phalaris minor), rape (Brassica napus), redroot pigweed (Amaranthus retroflexus), Russian thistle (Salsola kali), scentless chamomile (Matricaria inodora), spring barley (Hordeum vulgare), sugar beet (Beta vulgaris), sunflower (Helianthus annuus), ivyleaf speedwell (Veronica hederaefolia), spring wheat (Triticum aestivum), winter wheat (Triticum aestivum), wild buckwheat (Polygonum convolvulus), wild mustard (Sinapis arvensis), wild oat (Avena fatua), windgrass (Apera spica-venti) and winter barley (Hordeum vulgare).
(§3) Treated plants and untreated controls were maintained in a greenhouse for approximately 21 to 28 days, after which all treated plants were compared to untreated controls and visually evaluated. […] A dash response (-) means no test result.

galium = experiment: Test E galium; type: in vivo, Galium aparine; conditions: Postemergence
Experimental: […] A mixture of sandy loam soil and greenhouse potting mix in a 60:40 ratio was used for the postemergence test.
as §2, §3

rape [5] = experiment: Test E rape; type: in vivo, Brassica napus; conditions: Postemergence
Outline: (§4)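 Greenhouse test: for postemergence, foliar application at 1- to 4-leaf stage; compound in non-phytotoxic solvent with surfactant. Rating is visual, relative to untreated controls, about 21 to 28 days after treatment.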

scentless chamomile = experiment: Test E scentless chamomile; type: in vivo, Matricaria inodora; conditions: Postemergence
Experimental: as §1, §2, §3

windgrass = experiment: Test E windgrass; type: in vivo, Apera spica-venti; conditions: Postemergence
Outline: as §4

maize hybrid P33G26 = experiment: Test G maize injury with safener-treated seed; conditions: 28 days after application
Outline: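 Maize hybrid P33G26 seed, treated with dichlormid, fenchlorazole-ethyl or naphthalic anhydride or left untreated, was sown in soil pots, then sprayed pre-emergence with several compound rates at 310 L/ha. Plants grew in a greenhouse (14 h day, about 27/24 °C day/night), with 4–5 replicates. Injury was scored visually against untreated controls 28 days after application.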

sourgrass = experiment: Test D sourgrass; type: in vivo, Trichachne insularis; conditions: Postemergence, 0 to 100 scale
common poppy = experiment: Test E common poppy; type: in vivo, Papaver rhoeas; conditions: Preemergence
rape [6] = experiment: Test E rape; type: in vivo, Brassica napus; conditions: Preemergence
spring wheat = experiment: Test E spring wheat; type: in vivo, Triticum aestivum; conditions: Preemergence
[7] = Rate 64 g/ha, 0 no injury, 100 complete control
[8] = Rate 125 g/ha, 0 no injury, 100 complete control
[9] = Rate 500 g/ha, 0 to 100 scale, 0 no effect, 100 complete control
[10] = Rate 250 g/ha, 0 to 100 scale where 0 is no effect and 100 is complete control
[11] = Rate 125 g/ha, 0 to 100 scale (0 no effect, 100 complete control)
[12] = Rate 500 g/ha, 0 to 100 scale where 0 is no effect and 100 is complete control
[13] = Rate 250 g/ha, 0 to 100 scale (0 no effect, 100 complete control)

CC(C)N(C(=O)n1oc(=O)n(C2CC2)c1=O)c1ccc(F)cc1F [Compound 299]
Plant response rating, Bermudagrass (bermuda-grass; [7]): 90
Plant response rating, Bermudagrass (bermuda-grass; [8]): 100
Plant response rating, Bermudagrass (bermuda-grass; Rate 250 g/ha): 100
Plant response rating, Bermudagrass (bermuda-grass; Rate 500 g/ha): 100
Plant response rating, C. purslane (common pursiane; [7]): 0
Plant response rating, C. purslane (common pursiane; [8]): 0
Plant response rating, C. purslane (common pursiane; Rate 250 g/ha): 0
Plant response rating, C. purslane (common pursiane; Rate 500 g/ha): 0
Plant response rating, Com. groundsel (common groundsel; [7]): 100
Plant response rating, Com. groundsel (common groundsel; [8]): 100
Plant response rating, Com. groundsel (common groundsel; Rate 250 g/ha): 100
Plant response rating, Com. groundsel (common groundsel; Rate 500 g/ha): 100
Purple nutsedge plant response rating (purple nutsedge; Rate 64 g/ha): 0
Purple nutsedge plant response rating (purple nutsedge; Rate 125 g/ha): 0
Plant response rating, Purple nutsedge (purple nutsedge; Rate 250 g/ha): 0
Plant response rating, Purple nutsedge (purple nutsedge; Rate 500 g/ha): 100
Tall Mallow plant response rating (tall mallow; Rate 64 g/ha): 30
Tall Mallow plant response rating (tall mallow; Rate 125 g/ha): 90
Plant response rating, Tall Mallow (tall mallow; Rate 250 g/ha): 70
Plant response rating, Tall Mallow (tall mallow; Rate 500 g/ha): 100
Plant response rating, Green foxtail (Green foxtail [1]; Rate 250 g/ha): 100
Plant response rating, Green foxtail (Green foxtail [1]; Rate 500 g/ha): 100
Plant response rating, Green foxtail (Green foxtail [2]; Rate 64 g/ha): 100
Plant response rating, Green foxtail (Green foxtail [2]; Rate 125 g/ha): 100
Plant response rating, Green foxtail (Green foxtail [3]; Rate 250 g/ha): 100
Plant response rating, Green foxtail (Green foxtail [3]; Rate 500 g/ha): 100
Green foxtail plant response rating (Green foxtail [4]; Rate 64 g/ha): 100
Green foxtail plant response rating (Green foxtail [4]; Rate 125 g/ha): 100

C=CCn1c(=O)on(C(=O)N(c2ccc(F)cc2)C(C)C)c1=O [Compound 146]
Plant response rating, Annual bluegras (annual bluegrass; Rate 62 g/ha, 0 to 100 scale): 85
Plant response rating, Annual bluegras (annual bluegrass; Rate 125 g/ha, 0 to 100 scale): 10
Plant response rating, Annual bluegras (annual bluegrass; [9]): 65
Annual bluegras plant response rating (annual bluegrass; [10]): 10
Plant response rating, Galium (galium; Rate 62 g/ha, 0 to 100 scale): 50
Plant response rating, Galium (galium; Rate 125 g/ha, 0 to 100 scale): 0
Plant response rating, Galium (galium; [9]): 60
Galium plant response rating (galium; [10]): 15
Plant response rating, Rape (rape [5]; Rate 62 g/ha, 0 to 100 scale): 60
Plant response rating, Rape (rape [5]; Rate 125 g/ha, 0 to 100 scale): 40
Plant response rating, Rape (rape [5]; [9]): 60
Rape plant response rating (rape [5]; [10]): 50
Plant response rating, Scentless chamo (scentless chamomile; Rate 62 g/ha, 0 to 100 scale): 20
Plant response rating, Scentless chamo (scentless chamomile; Rate 125 g/ha, 0 to 100 scale): 10
Plant response rating, Scentless chamo (scentless chamomile; [9]): 10
Scentless chamo plant response rating (scentless chamomile; [10]): 10
Plant response rating, Windgrass (windgrass; Rate 62 g/ha, 0 to 100 scale): 85
Windgrass plant response rating (windgrass; [10]): 95
Mean plant response rating, maize (maize hybrid P33G26; Safener Dichlormid (seed treatment), Rate 140 g ai/ha): 1 percent control
Mean plant response rating, maize (maize hybrid P33G26; Safener Dichlormid (seed treatment), Rate 280 g ai/ha): 1 percent control
Mean plant response rating, maize (maize hybrid P33G26; Safener Dichlormid (seed treatment), Rate 560 g ai/ha): 4 percent control
Mean plant response rating, maize (maize hybrid P33G26; Safener Dichlormid (seed treatment), Rate 1120 g ai/ha): 4 percent control
Mean plant response rating, maize (maize hybrid P33G26; Safener Fenchlorazole-ethyl (seed treatment), Rate 140 g ai/ha): 3 percent control
Mean plant response rating, maize (maize hybrid P33G26; Safener Fenchlorazole-ethyl (seed treatment), Rate 280 g ai/ha): 74 percent control
Mean plant response rating, maize (maize hybrid P33G26; Safener Fenchlorazole-ethyl (seed treatment), Rate 560 g ai/ha): 78 percent control
Mean plant response rating, maize (maize hybrid P33G26; Safener Fenchlorazole-ethyl (seed treatment), Rate 1120 g ai/ha): 85 percent control
Mean plant response rating, maize (maize hybrid P33G26; Safener None, Rate 140 g ai/ha): 49 percent control
Mean plant response rating, maize (maize hybrid P33G26; Safener None, Rate 280 g ai/ha): 73 percent control
Mean plant response rating, maize (maize hybrid P33G26; Safener None, Rate 560 g ai/ha): 80 percent control
Mean plant response rating, maize (maize hybrid P33G26; Safener None, Rate 1120 g ai/ha): 85 percent control
Mean plant response rating, maize (maize hybrid P33G26; Safener naphthalic anhydride (seed treatment), Rate 140 g ai/ha): 0 percent control
Mean plant response rating, maize (maize hybrid P33G26; Safener naphthalic anhydride (seed treatment), Rate 1120 g ai/ha): 35 percent control
Plant response rating, Bermudagrass (bermuda-grass; [7]): 0
Plant response rating, Bermudagrass (bermuda-grass; [8]): 0
Plant response rating, Bermudagrass (bermuda-grass; Rate 250 g/ha): 0
Plant response rating, Bermudagrass (bermuda-grass; Rate 500 g/ha): 35
Plant response rating, C. purslane (common pursiane; [7]): 0
Plant response rating, C. purslane (common pursiane; [8]): 0
Plant response rating, C. purslane (common pursiane; Rate 250 g/ha): 20
Plant response rating, C. purslane (common pursiane; Rate 500 g/ha): 20
Plant response rating, Com. groundsel (common groundsel; [7]): 0
Plant response rating, Com. groundsel (common groundsel; [8]): 0
Plant response rating, Com. groundsel (common groundsel; Rate 250 g/ha): 0
Plant response rating, Com. groundsel (common groundsel; Rate 500 g/ha): 0
Purple nutsedge plant response rating (purple nutsedge; Rate 64 g/ha): 0
Purple nutsedge plant response rating (purple nutsedge; Rate 125 g/ha): 0
Plant response rating, Purple nutsedge (purple nutsedge; Rate 250 g/ha): 0
Plant response rating, Purple nutsedge (purple nutsedge; Rate 500 g/ha): 35
Sourgrass plant response rating (sourgrass; [7]): 50
Plant response rating, Sourgrass (sourgrass; [8]): 50
Sourgrass plant response rating (sourgrass; [8]): 30
Plant response rating, Sourgrass (sourgrass; Rate 250 g/ha): 80
Plant response rating, Sourgrass (sourgrass; Rate 500 g/ha): 80
Tall Mallow plant response rating (tall mallow; Rate 64 g/ha): 0
Tall Mallow plant response rating (tall mallow; Rate 125 g/ha): 0
Plant response rating, Tall Mallow (tall mallow; Rate 250 g/ha): 0
Plant response rating, Tall Mallow (tall mallow; Rate 500 g/ha): 50
Plant response rating, Common poppy (common poppy; [11]): 100
Common poppy plant response rating (0 to 100 scale) (common poppy; Rate 250 g/ha): 100
Plant response rating, Common poppy (common poppy; [12]): 100
Plant response rating, Rape (rape [6]; [11]): 60
Rape plant response rating (0 to 100 scale) (rape [6]; Rate 250 g/ha): 80
Plant response rating, Rape (rape [6]; [12]): 60
Plant response rating, Spring Wheat (spring wheat; [11]): 50
Spring Wheat plant response rating (0 to 100 scale) (spring wheat; Rate 250 g/ha): 80
Plant response rating, Spring Wheat (spring wheat; [12]): 100

CC(C)N(C(=O)n1oc(=O)n(C(C)C)c1=O)c1ccc(F)cc1F [Compound 109]
Plant response rating, Annual bluegras (annual bluegrass; Rate 125 g/ha, 0 to 100 scale): 10
Plant response rating, Annual bluegras (annual bluegrass; [13]): 10
Plant response rating, Annual bluegras (annual bluegrass; [9]): 50
Plant response rating, Galium (galium; Rate 125 g/ha, 0 to 100 scale): 50
Plant response rating, Galium (galium; [13]): 30
Plant response rating, Galium (galium; [9]): 50
Plant response rating, Rape (rape [5]; Rate 125 g/ha, 0 to 100 scale): 50
Plant response rating, Rape (rape [5]; [13]): 50
Plant response rating, Rape (rape [5]; [9]): 60
Plant response rating, Scentless chamo (scentless chamomile; Rate 125 g/ha, 0 to 100 scale): 0
Plant response rating, Scentless chamo (scentless chamomile; [13]): 0
Plant response rating, Scentless chamo (scentless chamomile; [9]): 10
Plant response rating, Rape (rape [6]; [11]): 10
Plant response rating, Rape (rape [6]; Rate 250 g/ha, 0 to 100 scale): 55
Plant response rating, Rape (rape [6]; [12]): 65
Plant response rating, Spring Wheat (spring wheat; [11]): 20
Plant response rating, Spring Wheat (spring wheat; Rate 250 g/ha, 0 to 100 scale): 40
Plant response rating, Spring Wheat (spring wheat; [12]): 50
